Measurements reported in the NIST ThermoML archive (doi:10.1016/j.fluid.2013.01.022).

Key:
[1] = refractive index (Na D-line) (dimensionless); conditions: 298.15 K; 101.33 kPa; Liquid; Standard Abbe refractometry
[2] = 298.15 K; 101.33 kPa; Liquid; Vibrating tube method
[3] = refractive index (Na D-line) (dimensionless); xn = mol fraction of the nth substance listed; conditions: 298.15 K, 101 kPa, Liquid, Standard Abbe refractometry
[4] = xn = mol fraction of the nth substance listed; conditions: 298.15 K, 101 kPa, Liquid, Vibrating tube method

CC(CC(C)(C)C)CP(=O)([O-])CC(C)CC(C)(C)C.CCCCCCCCCCCCCC[P+](CCCCCC)(CCCCCC)CCCCCC
Conditions	mass density [kg/m3]	refractive index
[1]	–	1.47125
[2]	886.43	–

CC(CC(C)(C)C)CP(=O)([O-])CC(C)CC(C)(C)C.CCCCCCCCCCCCCC[P+](CCCCCC)(CCCCCC)CCCCCC + CCO
Conditions	mass density, [4] [kg/m3]	refractive index, [3]
x2 = 0.051	886.25	1.47094
x2 = 0.1022	886.05	1.47076
x2 = 0.2136	885.54	1.46988
x2 = 0.305	885	1.46895
x2 = 0.4024	884.17	1.46802
x2 = 0.5019	882.93	1.46563
x2 = 0.5976	881.05	1.46367
x2 = 0.6989	877.74	1.459
x2 = 0.7998	871	1.45104
x2 = 0.9003	854.34	1.44331
x2 = 0.9499	840.31	1.43816

CC(CC(C)(C)C)CP(=O)([O-])CC(C)CC(C)(C)C.CCCCCCCCCCCCCC[P+](CCCCCC)(CCCCCC)CCCCCC + CCOC(C)(C)C
Conditions	mass density, [4] [kg/m3]	refractive index, [3]
x2 = 0.0425	886	1.4696
x2 = 0.0954	885.1	1.4691
x2 = 0.2026	882.46	1.4673
x2 = 0.2904	879.48	1.4653
x2 = 0.4013	874.66	1.4623
x2 = 0.4971	869.23	1.4587
x2 = 0.6023	861.11	1.4539
x2 = 0.7002	850.33	1.4464
x2 = 0.7999	832.96	1.435
x2 = 0.8998	802.31	1.4225
x2 = 0.9503	776.41	1.4154

CCOC(C)(C)C [2-ethoxy-2-methylpropane]
Conditions	mass density [kg/m3]	refractive index
[1]	–	1.37358
[2]	735.85	–

CCO [ethanol]
Conditions	mass density [kg/m3]	refractive index
[1]	–	1.35925
[2]	785.22	–

CCCCCCCCCCCCCC[P+](CCCCCC)(CCCCCC)CCCCCC.[Cl-] [trihexyl(tetradecyl)phosphonium chloride]
Conditions	mass density [kg/m3]	refractive index
[1]	–	1.48175
[2]	891.82	–

CCCCCCCCCCCCCC[P+](CCCCCC)(CCCCCC)CCCCCC.[Cl-] [trihexyl(tetradecyl)phosphonium chloride] + CCOC(C)(C)C
Conditions	mass density, [4] [kg/m3]	refractive index, [3]
x2 = 0.0473	890.24	1.4804
x2 = 0.1037	888.11	1.4788
x2 = 0.1961	884.09	1.4762
x2 = 0.3076	878.3	1.4727
x2 = 0.3968	872.72	1.4688
x2 = 0.5075	864.28	1.4624
x2 = 0.5981	855.37	1.4562
x2 = 0.6992	841.62	1.4463
x2 = 0.7993	821.34	1.432
x2 = 0.8987	790.03	1.4104
x2 = 0.9496	767.05	1.3943
